Values after ≈ are worked out from the molar mass of the structure shown. Values joined by “and” are separate entries in the source; they are usually repeats but may differ in a detail not shown here. Equal entries are not always repeated. Values belong to the compound of their own block, whether it stands above or below them.
How the values were obtained:
[1] = Solubility of the obtained compound in solvents; format: physicochemical
Experimental: 3-Methoxybenzaldehyde thiosemicarbazone (C9H11N3OS; (2E)-2-(3-methoxybenzylidene) hydrazine carbothioamide) (3MBTSc) was prepared by using the previous procedure with slight modifications. It was prepared by refluxing a mixture of thiosemicarbazide ([…], 0.01 mmol) and 3-Methoxybenzaldehyde (2.67 mL, 0.01 mmol) in a mixture of 20 mL distilled water and 20 mL methanol as the solvent medium in the presence of glacial acetic acid (2–3 mL). The reaction mixture was refluxed for about 3–4 h. After cooling, the yellow crystalline solid separated was filtered, washed, and dried. The yield of the compound was 2.16 g and the obtained compound was insoluble in CHCl3, CCl4, CH3CN, H2O, ethanol, and methanol but it was soluble in DMSO and DHF/THF. The following characterization was carried out to confirm the synthesis of 3-Methoxybenzaldehyde thiosemicarbazone by FTIR (cm^−1): v(NH2) 3403s; 3287s; v(-NH) 3150s; 1599s v(C=N); v(C=S) 1246s, 836s, ^1H-NMR (DMSO-d^6, ppm): 11.40 (s, 1H); 8.19 (s, 2H); 6.95–7.44 (m, ar-H); 3.80 (s, 3H), and ^13C-NMR (DMSO-d^6, ppm): 178.9 (s, C=S), 55.76 (s, OCH3), 111-143 (m-Ph-C), 159.6 (s, C=N).
4-Nitrobenzaldehyde thiosemicarbazone ((2E)-2-(4-nitrobenzylidene) hydrazine carbothioamide) (4NBTSc) was synthesized using earlier reported methods with slight modifications. A mixture of 1.51 g (0.01 mmol) of 4-Nitrobenzaldehyde, and 0.914 g (0.01 mmol) thiosemicarbazide was stirred for 2 h using 15 mL of methanol and 15 mL of distilled water as a solvent medium. The resulting yellow solution was allowed to cool. Then, a yellow crystalline solid separated was filtered, washed with diethyl ether and dried. The yield of the compound was 2.30 g and the obtained compound was insoluble in CHCl3, CCl4, CH3CN, H2O, ethanol, and methanol but it was soluble in DMSO and DHF/THF. The following characterization was carried out to confirm the synthesis of 4-Nitrobenzaldehyde thiosemicarbazone by FTIR (cm^−1): v(NH2) 3499m; 3373s; v(-NH) 3197s; 1588s; 1343s (v(NO2); v(C=N); v(C=S) 1137s, 750s, ^1H-NMR (DMSO-d^6, ppm): 11.66 (s, 1H); 8.38 (s, 2H); 8.32–8.03 (m, ar-H), and ^13C-NMR (DMSO-d^6, ppm): 179 (s, C=S), 128-141 (m-Ph-C), 148.06(s, C=N), 124.23 (s, CH).

[2] = tested on: mouse Ehrlich Ascites Carcinoma (EAC); experiment: MTT test on EAC cells; format: cell-based; conditions: for IC50: Mus musculus, Ehrlich, EAC cells, MTT, till 48 h
Experimental: (§1) The in vitro anticancer activities of the synthesized compounds were conducted using different cancerous and non-cancerous cell lines viz B16-F0 (Mouse melanoma), mouse Ehrlich Ascites Carcinoma (EAC), MCF-7 (Human breast cancer), MCF-10A (Human breast epithelial cells), and NIH/3T3 (Mouse fibroblast cells). All cell lines were procured from the National Centre for Cell Science, Pune, India. The procured cells were cultured in a six-well culture plate with Dulbecco’s Modified Eagle’s Medium (DMEM) supplemented with 10% fetal bovine serum in a humid CO2 incubator with 5% carbon dioxide at 37 °C.
(§2) The anti-cancer effect and cytotoxicity of both 3-MBTSc and 4-NBTSc compounds were evaluated against different cancerous (MCF-7, EAC, B16-F0 cells) and noncancerous cells (MCF-10A, NIH-3T3 cells) using MTT test. In brief, the stock solutions of both the tested compounds were prepared by dissolving 1 mg of each compound in 1 mL of DMSO separately. Then, four different concentrations (5, 10, 12, and 20 µg/mL) of both compounds were used during the test along with the negative control. Also, 10 μg/mL of doxorubicin (Dox) was used as the positive control during the experiment. Both untreated and treated cells were incubated for next 24 and 48 h. Then, all the steps during the whole experiment were carried out by our earlier reported procedure. Later, the absorbance values were measured by an ELISA reader (Biorad, Hercules, CA, USA) at 570 nm wavelength using secondary wavelength as a reference at 620 nm and the percentages of cell viability was calculated using the following formula [59, 60, 61]. Cell viability (%)= Mean absorbance of treated cells/Mean absorbance of untreated cells × 100
(§3) Based on the cell viability data, the IC50 values of both compounds were calculated on different cancer cells by plotting their corresponding dose-responsive graphs.
The obtained data were statistically analyzed. The descriptive analysis was done and the IC50 values were calculated by fitting the sigmoidal dose responsive graph using GraphPad Prism (GraphPad Software, Inc., La Jolla, CA, USA). […]

MCF-7, EAC, B16-F0 cells = experiment: MTT test, cancer cell lines overall; format: cell-based; conditions: over the cell lines tested; read-out: IC50 (range over treated cells)
Experimental: as §1
The anti-cancer effect and cytotoxicity of both 3-MBTSc and 4-NBTSc compounds were evaluated against different cancerous (MCF-7, EAC, B16-F0 cells) and noncancerous cells (MCF-10A, NIH-3T3 cells) using MTT test. […] Later, the absorbance values were measured by an ELISA reader (Biorad, Hercules, CA, USA) at 570 nm wavelength using secondary wavelength as a reference at 620 nm and the percentages of cell viability was calculated using the following formula [59, 60, 61]. Cell viability (%)= Mean absorbance of treated cells/Mean absorbance of untreated cells × 100
as §3
The obtained data were statistically analyzed. […]

[3] = tested on: NIH/3T3 (Mouse fibroblast cells); experiment: MTT cytotoxicity test on NIH-3T3 cells; format: cell-based; conditions: 48 h
Experimental: as §1, §2

[4] = MTT cytotoxicity test on NIH-3T3 cells; format: cell-based, Mouse; conditions: mouse, NIH/3T3 fibroblast cells
Experimental: as §1, §2

[5] = tested on: gene expression in EAC cells; experiment: RT-qPCR gene expression in EAC cells; format: cell-based, mouse
Experimental: Total mRNA was isolated and extracted by Trizol reagent as described in an earlier method. RevertAid First Strand cDNA synthesis kit (Thermo Fisher Scientific, Waltham, MA, USA) was used to synthesize cDNA in a total reaction volume of 20 μL containing oligo-dT primers, RiboLock RNase inhibitor, and reverse transcriptase. Gene-specific primers were used to amplify cDNAs in RT-qPCR machine (Applied Biosystems, Waltham, MA, USA).

[6] = EAC cells treated, GAPDH housekeeping gene
[7] = EAC cells, difference of RQ values

solubility in CHCl3, CCl4, CH3CN, H2O, ethanol, and methanol [1]: insoluble | solubility in DMSO and DHF/THF [1]: soluble | IC50 [2]: 3.355 ± 0.012 µg/mL (≈ 16 µM) | IC50 (MCF-7, EAC, B16-F0 cells): 2.82 to 14.2 µg/mL (≈ 13.5 to 68.1 µM)
Compound: COc1cccc(C=NNC(N)=S)c1 [3-MBTSc, 3-Methoxybenzaldehyde thiosemicarbazone]
inhibition of cell growth ([2]; EAC cell line, MTT assay): 50.31% | toxicity [3]: less than 20% | viability at 48 h [4]: > 80% | BCl2 Treated (RQ value) [5, 6]: 7.195 ± 0.021 | BRCA1 Treated (RQ value) [5, 6]: 4.305 ± 0.021 | Bax Treated (RQ value) [5, 6]: 5.195 ± 0.021 | Caspase-3 Treated (RQ value) [5, 6]: 3.095 ± 0.035 | Dmp1 Treated (RQ value) [5, 6]: 6.9 ± 0.028 | Fos Treated (RQ value) [5, 6]: 4.22 ± 0.014 | MTS 1 Treated (RQ value) [5, 6]: 1.1 ± 0.028 | Mdm2 Treated (RQ value) [5, 6]: 4.145 ± 0.035 | PKC Treated (RQ value) [5, 6]: 7.105 ± 0.021 | PTEN Treated (RQ value) [5, 6]: 4.205 ± 0.035 | RAS Treated (RQ value) [5, 6]: 3.215 ± 0.021 | p19 Arf Treated (RQ value) [5, 6]: 4.73 ± 0.028 | p21 Treated (RQ value) [5, 6]: 5.19 ± 0.028 | pRB Treated (RQ value) [5, 6]: 3.575 ± 0.021 | BCl2 Fold Change (EAC treated-EAC untreated) [5, 7]: 4.105 fold | BRCA1 Fold Change (EAC treated-EAC untreated) [5, 7]: 2.245 fold | Bax Fold Change (EAC treated-EAC untreated) [5, 7]: 2.145 fold | Caspase-3 Fold Change (EAC treated-EAC untreated) [5, 7]: 0.195 fold | Dmp1 Fold Change (EAC treated-EAC untreated) [5, 7]: 4.75 fold | Fos Fold Change (EAC treated-EAC untreated) [5, 7]: -3.92 fold | MTS 1 Fold Change (EAC treated-EAC untreated) [5, 7]: -0.805 fold | Mdm2 Fold Change (EAC treated-EAC untreated) [5, 7]: -1.06 fold | PKC Fold Change (EAC treated-EAC untreated) [5, 7]: -3.03 fold | PTEN Fold Change (EAC treated-EAC untreated) [5, 7]: 2.975 fold | RAS Fold Change (EAC treated-EAC untreated) [5, 7]: -3.725 fold | p19 Arf Fold Change (EAC treated-EAC untreated) [5, 7]: 1.98 fold | p21 Fold Change (EAC treated-EAC untreated) [5, 7]: 4.195 fold | p53 Fold Change (EAC treated-EAC untreated) [5, 7]: 2.1 fold | pRB Fold Change (EAC treated-EAC untreated) [5, 7]: 1.67 fold

solubility in CHCl3, CCl4, CH3CN, H2O, ethanol, and methanol [1]: insoluble | solubility in DMSO and DHF/THF [1]: soluble | IC50 [2]: 3.832 ± 0.014 µg/mL (≈ 17.1 µM) | IC50 (MCF-7, EAC, B16-F0 cells): 2.8 to 7.59 µg/mL (≈ 12.5 to 33.8 µM)
Compound: NC(=S)N[N-][CH+]c1ccc([N+](=O)[O-])cc1 [4-NBTSc, 4-Nitrobenzaldehyde thiosemicarbazone]
toxicity [3]: less than 20% | viability at 48 h [4]: > 80% | BCl2 Treated (RQ value) [5, 6]: 6.195 ± 0.021 | BRCA1 Treated (RQ value) [5, 6]: 7.195 ± 0.021 | Bax Treated (RQ value) [5, 6]: 2.945 ± 0.035 | Caspase-3 Treated (RQ value) [5, 6]: 4.23 ± 0.028 | Dmp1 Treated (RQ value) [5, 6]: 4.1 ± 0.014 | Fos Treated (RQ value) [5, 6]: 3.095 ± 0.021 | MTS 1 Treated (RQ value) [5, 6]: 1.945 ± 0.035 | Mdm2 Treated (RQ value) [5, 6]: 4.955 ± 0.021 | PKC Treated (RQ value) [5, 6]: 7.13 ± 0.028 | PTEN Treated (RQ value) [5, 6]: 8.65 ± 0.028 | RAS Treated (RQ value) [5, 6]: 3.13 ± 0.028 | p19 Arf Treated (RQ value) [5, 6]: 4.605 ± 0.021 | p21 Treated (RQ value) [5, 6]: 3.125 ± 0.035 | p53 Treated (RQ value) [5, 6]: 3.165 ± 0.064 | pRB Treated (RQ value) [5, 6]: 6.095 ± 0.035 | BCl2 Fold Change (EAC treated-EAC untreated) [5, 7]: 3.105 fold | BRCA1 Fold Change (EAC treated-EAC untreated) [5, 7]: 5.135 fold and 5.13 fold | Bax Fold Change (EAC treated-EAC untreated) [5, 7]: -0.105 fold | Caspase-3 Fold Change (EAC treated-EAC untreated) [5, 7]: 1.33 fold | Dmp1 Fold Change (EAC treated-EAC untreated) [5, 7]: 1.95 fold | MTS 1 Fold Change (EAC treated-EAC untreated) [5, 7]: 0.04 fold | Mdm2 Fold Change (EAC treated-EAC untreated) [5, 7]: -0.25 fold | PTEN Fold Change (EAC treated-EAC untreated) [5, 7]: 7.42 fold | p19 Arf Fold Change (EAC treated-EAC untreated) [5, 7]: 1.855 fold | p21 Fold Change (EAC treated-EAC untreated) [5, 7]: 2.13 fold | p53 Fold Change (EAC treated-EAC untreated) [5, 7]: 2.105 fold | pRB Fold Change (EAC treated-EAC untreated) [5, 7]: 4.19 fold
